Key:
Agonisten Bindungsstelle = test: [³H]cis-methyldioxolane binding study (muscarinic agonist binding site); settings: [³H]Ligand cis-Methyldioxolan
Text: Die erfindungsgemäßen Verbindungen verdrängen den muscarinen Agonisten mit hoher Affinität von der Agonisten Bindungsstelle. Die Durchführung der [3H]cis-Methyldioxolan-Bindungsstudien erfolgen analog zu A Closs et al., Naunyn Schmiedebergs Arch. Pharmacol 335, 372-377 (1987). Die Ergebnisse sind in Tabelle Ia zusammengestellt Tabelle Ia: […]

[1] = Haloperidol-induced dyskinesias in haloperidol-sensitised monkeys; assay type: in vivo; settings: gegen Haloperidol sensibilisierte Affen; Dosis < 1 mg/kg i.m
Rezeptorsubtyp M₂ = target: T1, Rezeptorsubtyp M₂ (Rattus norvegicus, UniProt P10980); test: Muscarinic receptor binding study, M₂ subtype, heart, [³H]N-methylscopolamine; settings: Organ Herz, [³H]Ligand N-Methylscopolamin, kind of constant not stated
T1 construct: Herz; from tissue; host or cells: heart
T1 sequence (P10980 1-466): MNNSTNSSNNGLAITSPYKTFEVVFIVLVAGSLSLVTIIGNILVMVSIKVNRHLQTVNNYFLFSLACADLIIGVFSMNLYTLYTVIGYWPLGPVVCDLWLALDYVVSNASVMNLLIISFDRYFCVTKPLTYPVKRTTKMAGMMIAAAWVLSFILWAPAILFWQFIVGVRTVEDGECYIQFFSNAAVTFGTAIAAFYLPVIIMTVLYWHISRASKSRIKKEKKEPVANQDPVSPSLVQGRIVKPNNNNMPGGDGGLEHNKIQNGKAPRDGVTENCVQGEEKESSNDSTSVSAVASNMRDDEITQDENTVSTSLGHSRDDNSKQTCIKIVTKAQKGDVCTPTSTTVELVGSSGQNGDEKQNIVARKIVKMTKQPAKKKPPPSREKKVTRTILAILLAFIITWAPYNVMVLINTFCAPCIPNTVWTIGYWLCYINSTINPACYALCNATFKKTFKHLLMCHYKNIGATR
Text: (§1) Die Rezeptorbindungsstudien im muskarinisch cholinergen System wurden an den drei Rezeptorsubtypen gemäß den untenstehenden Literaturzitaten ausgeführt (Watson, M., H. I. Yamamura and W.R. Roeske 1983, Life Sci. 32, 3001-3011; Hammer, R., C.P. Berrie, N.I.M. Birdsall, A.S.V. Burgen and E.C. Hulme 1980, Nature 283, 90-92; Hammer, R., E. Giraldo, G.B. Schiavi, E. Monferini and H. Ladinsky 1986, Life Sci. 38, 1653-1662;).

Rezeptorsubtyp M₃ = target: T2, Rezeptorsubtyp M₃ (Rattus norvegicus, UniProt P08483); test: Muscarinic receptor binding study, M₃ subtype, lacrimal gland, [³H]N-methylscopolamine; settings: Organ Tränendrüse, [³H]Ligand N-Methylscopolamin, kind of constant not stated
T2 construct: Tränendrüse; from tissue; host or cells: lacrimal gland
T2 sequence (P08483 whole entry): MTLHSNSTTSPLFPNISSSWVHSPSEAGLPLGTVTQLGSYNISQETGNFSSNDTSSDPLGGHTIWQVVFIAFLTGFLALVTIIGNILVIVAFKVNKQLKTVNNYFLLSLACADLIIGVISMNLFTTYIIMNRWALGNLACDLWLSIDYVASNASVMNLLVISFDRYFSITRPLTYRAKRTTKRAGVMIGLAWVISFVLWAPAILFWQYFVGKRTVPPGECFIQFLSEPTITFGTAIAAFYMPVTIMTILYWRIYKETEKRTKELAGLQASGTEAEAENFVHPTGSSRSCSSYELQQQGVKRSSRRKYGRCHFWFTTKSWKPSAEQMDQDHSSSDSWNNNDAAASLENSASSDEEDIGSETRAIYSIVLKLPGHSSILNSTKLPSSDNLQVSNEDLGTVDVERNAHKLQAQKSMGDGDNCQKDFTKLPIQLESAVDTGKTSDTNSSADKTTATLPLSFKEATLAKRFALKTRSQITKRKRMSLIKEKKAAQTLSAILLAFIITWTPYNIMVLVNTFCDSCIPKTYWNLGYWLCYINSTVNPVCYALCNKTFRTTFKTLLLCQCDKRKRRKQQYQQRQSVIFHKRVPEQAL
Text: as §1

Rezeptorsubtyp M₁ = target: T3, Rezeptorsubtyp M₁ (Rattus norvegicus, UniProt P08482); test: Muscarinic receptor binding study, M₁ subtype, hippocampus, [³H]pirenzepine; settings: Organ HIPPOCAMPUS, [³H]Ligand Pirenzepin, kind of constant not stated
T3 construct: HIPPOCAMPUS; from tissue; host or cells: hippocampus
T3 sequence (P08482 1-460): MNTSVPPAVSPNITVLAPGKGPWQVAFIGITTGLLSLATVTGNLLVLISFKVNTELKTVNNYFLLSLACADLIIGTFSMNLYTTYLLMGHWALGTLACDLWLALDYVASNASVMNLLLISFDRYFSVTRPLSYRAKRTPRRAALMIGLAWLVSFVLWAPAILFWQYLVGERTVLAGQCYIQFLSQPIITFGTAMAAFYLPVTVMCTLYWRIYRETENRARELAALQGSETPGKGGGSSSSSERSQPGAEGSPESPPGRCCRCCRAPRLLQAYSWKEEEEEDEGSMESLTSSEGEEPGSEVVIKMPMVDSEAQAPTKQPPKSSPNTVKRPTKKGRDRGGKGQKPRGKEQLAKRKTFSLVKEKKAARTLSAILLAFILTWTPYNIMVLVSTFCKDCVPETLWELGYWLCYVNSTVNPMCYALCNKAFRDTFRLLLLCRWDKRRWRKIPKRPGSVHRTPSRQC
Text: as §1

[2] = EEG of the awake rabbit (arousal reaction); assay type: in vivo; settings: waches Kaninchen
Text: Die erfindungsgemäßen tertiären Amine der allgemeinen Formel I zeigen Affinitäten zu muscarinen Rezeptoren im ZNS und im Tierexperiment muscarine agonistische Eigenschaften im ZNS.

Rezeptorbindung (Rezeptorsubtyp M₂) | Rezeptorbindung (Rezeptorsubtyp M₃) | Rezeptorbindung (Rezeptorsubtyp M₁) | Compound | Ki (Agonisten Bindungsstelle) [nM] | Dyskinesien zusammen mit unterschwelligen Dosen (Haloperidol) [1] | durch Haloperidol hervorgerufene Dyskinesien [1] | Arousal-Reaktion im EEG ([2]; 1 mg/kg i.v.) | Arousal-Reaktion im EEG ([2]; 3 mg/kg p.o.)
 |  |  | CCCc1cc2c(o1)CNCC2 [X=O, R₁=n-Pr, R₂=H, R₃=H, R₄=H, R₅=H] | 160 |  |  |  | 
14 µmol | 53,1 µMol | 7,5 µMol | Cc1cc2c(s1)CN(C)CC2 [X=S, R₁=CH₃, R₂=H, R₃=H, R₄=CH₃, R₅=H, 2,6-Dimethyl-4,5,6,7-tetrahydrothieno[2,3-c]pyridin] |  | lösen zusammen mit unterschwelligen Dosen Dyskinesien aus | verstärken |  | 
1,0 µMol |  | 1,4 µMol | CCc1cc2c(o1)CN(C)CC2 [X=O, R₁=Et, R₂=H, R₃=H, R₄=CH₃, R₅=H, 2-Ethyl-6-methyl-4,5,6,7-tetrahydro-furo[2,3-c]pyridin] | 52 |  |  |  | 
8,4 µMol | 34,1 µMol | 5,8 µMol | Cc1cc2c(s1)CN(C)CC2C (stereo not drawn) [X=S, R₁=CH₃, R₂=H, R₃=H, R₄=CH₃, R₅=CH₃, 2,4,6-Trimethyl-4,5,6,7-tetrahydrothieno[2,3-c]pyridin] |  |  |  |  | 
>100 µmol | >100 µmol | 36,3 µMol | CN1CCc2ccsc2C1 [X=S, R₁=H, R₂=H, R₃=H, R₄=CH₃, R₅=H, 6-Methyl-4,5,6,7,-tetrahydro-thieno[2,3-c]pyridin] |  |  |  |  | 
 |  |  | CCCc1cc2c(o1)CN(C)CC2 [X=O, R₁=N-Pr, R₂=H, R₃=H, R₄=CH₃, R₅=H, 6-Methyl-2-n-propyl-4,5,6,7,-tetrahydro-furo[2.3-c]pyridin] | 53 |  |  |  | 
4,5 µMol | 11,4 µMol | 2,2 µMol | CCN1CCc2cc(C)sc2C1 [X=S, R₁=CH₃, R₂=H, R₃=H, R₄=Et, R₅=H, 6-Ethyl-2-methyl-4,5,6,7-tetrahydrothieno[2,3-c]pyridin] |  |  |  |  | 
6,5 µMol | 24,2 µMol | 8,3 µMol | Cc1cc2c(o1)CN(C)CC2 [X=O, R₁=CH₃, R₂=H, R₃=H, R₄=CH₃, R₅=H, 2,6-Dimethyl-4,5,6,7-tetrahydrofuro[2,3-c]pyridin] | 81 |  |  | eine für Cholinomimetica typische Arousal-Reaktion | eine für Cholinomimetica typische Arousal-Reaktion
2,5 µMol | 2,7 µMol | 0,8 µMol | CC(C)Cc1cc2c(o1)CN(C)CC2 [X=O, R₁=iso-Bu, R₂=H, R₃=H, R₄=CH₃, R₅=H, 6-Methyl-2-iso-butyl-4,5,6,7,-tetrahydro-furo[2.3-c]pyridin] |  |  |  |  | 
3,2 µMol |  | 3,2 µMol | CCN1CCc2c(oc(C)c2C)C1 [X=O, R₁=CH₃, R₂=CH₃, R₃=H, R₄=Et, R₅=H] |  |  |  |  | 
>100 µmol | >100 µmol | 39,6 µMol | Cc1cc2c(s1)CNCC2 [X=S, R₁=CH₃, R₂=H, R₃=H, R₄=H, R₅=H, 2-Methyl-4,5,6,7,-tetrahydro-thieno[2,3-c]pyridin] |  |  |  |  | 

Compound | Rezeptorbindung (Rezeptorsubtyp M₂) | Rezeptorbindung (Rezeptorsubtyp M₃) | Rezeptorbindung (Rezeptorsubtyp M₁) | Ki (Agonisten Bindungsstelle) [nM] | Dyskinesien zusammen mit unterschwelligen Dosen (Haloperidol) [1] | durch Haloperidol hervorgerufene Dyskinesien [1] | Arousal-Reaktion im EEG ([2]; 1 mg/kg i.v.) | Arousal-Reaktion im EEG ([2]; 3 mg/kg p.o.)
CCCCc1cc2c(o1)CN(C)CC2 [X=O, R₁=n-Bu, R₂=H, R₃=H, R₄=CH₃, R₅=H, 6-Methyl-2-n-butyl-4,5,6,7,-tetrahydro-furo[2.3-c]pyridin] | 0,7 µMol |  | 0,5 µMol | 39 |  |  |  | 
